# According to ChEMBL document CHEMBL3045624, “Quantitative structureactivity relationships for estimating the aryl hydrocarbon receptor binding affinities of resveratrol derivatives and the antioxidant activities of hydroxystilbenes” (Med Chem Res, 2010):
# Experiments:
# [1] = Antioxidant activity assessed as inhibition rate constant in AAPH-induced human LDL peroxidation; type: functional
# [2] = Antioxidant activity assessed as time required to inhibit AAPH-induced human LDL peroxidation; type: functional
# [3] = Antioxidant activity assessed as time required to inhibit Cu2+-induced human LDL peroxidation; type: functional
# Liver microsome = assay: Antioxidant activity in Rattus norvegicus Wistar (rat) liver microsomes assessed as inhibition of Fe2+/ascorbate-induced lipid peroxidation incubated for 10 min prior to Fe2+/ascorbate induction measured after 60 min by TBARS assay; type: functional
# [4] = Antioxidant activity in SDS micelles assessed as time required to inhibit AAPH-induced linoleic acid peroxidation; type: functional
# [5] = Antioxidant activity in CTAB micelles assessed as inhibition rate constant for AAPH-induced linoleic acid peroxidation; type: functional
# [6] = Antioxidant activity assessed as inhibition rate constant for reaction with peroxyl radicals; type: functional
# [7] = Antioxidant activity assessed as time required to induce lipid oxidation by Rancimat method; type: functional
# [8] = Antioxidant activity in SDS micelles assessed as inhibition rate constant for AAPH-induced linoleic acid peroxidation; type: functional
# [9] = Antioxidant activity assessed as superoxide scavenging activity in riboflavin light-NBT system; type: functional
# [10] = test system: Radical scavenging activity; assay: Antioxidant activity assessed as inhibition of DPPH free radical formation; type: functional; design: concentration or dose not given beside the values; settings: dose or concentration not given here
# [11] = Antioxidant activity in CTAB micelles assessed as time required to inhibit AAPH-induced linoleic acid peroxidation; type: functional
# [12] = molecular target: T1, Aryl hydrocarbon receptor (Homo sapiens, UniProt P35869); assay: Binding affinity to aryl hydrocarbon receptor (unknown origin); settings: read-out: Ki(app)
# T1 sequence (P35869 whole entry): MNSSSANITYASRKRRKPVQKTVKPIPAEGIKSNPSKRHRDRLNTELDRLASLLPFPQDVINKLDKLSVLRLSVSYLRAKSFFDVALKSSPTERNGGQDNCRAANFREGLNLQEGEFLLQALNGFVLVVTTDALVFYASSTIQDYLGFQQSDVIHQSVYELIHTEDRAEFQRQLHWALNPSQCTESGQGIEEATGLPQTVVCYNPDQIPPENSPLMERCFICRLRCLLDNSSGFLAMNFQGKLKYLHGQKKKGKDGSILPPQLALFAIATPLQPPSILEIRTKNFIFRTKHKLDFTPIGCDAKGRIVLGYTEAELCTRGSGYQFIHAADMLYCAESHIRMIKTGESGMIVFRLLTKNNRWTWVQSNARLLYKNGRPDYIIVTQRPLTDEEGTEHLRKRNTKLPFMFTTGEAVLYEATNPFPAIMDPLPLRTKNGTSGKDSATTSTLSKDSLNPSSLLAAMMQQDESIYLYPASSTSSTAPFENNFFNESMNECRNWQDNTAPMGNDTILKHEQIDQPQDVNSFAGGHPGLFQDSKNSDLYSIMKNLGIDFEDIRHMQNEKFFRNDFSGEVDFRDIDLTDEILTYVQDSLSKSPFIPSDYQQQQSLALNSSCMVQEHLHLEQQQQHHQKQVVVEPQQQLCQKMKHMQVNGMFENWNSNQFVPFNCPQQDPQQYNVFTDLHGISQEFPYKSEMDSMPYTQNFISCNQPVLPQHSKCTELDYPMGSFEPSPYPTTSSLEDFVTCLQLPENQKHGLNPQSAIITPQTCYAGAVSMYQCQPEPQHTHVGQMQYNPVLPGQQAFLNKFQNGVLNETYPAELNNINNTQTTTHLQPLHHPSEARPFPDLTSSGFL
# [13] = Antioxidant activity assessed as decrease in initial quantity of DPPH measured up to 6 hr by spectrophotometric analysis; type: functional
smiles,measurement,setting,value
Oc1ccc(/C=C/c2ccccc2)c(O)c1,INH,[1],6.2 ×10⁵ L/mol/s
same,TIME,[2],0.292 h
same,TIME,[3],0.883 h
Oc1ccc(/C=C/c2cc(O)cc(O)c2)cc1 [RESVERATROL],EC50,Liver microsome,135 µM
same,TIME,[4],3.1 ×10³ s
same,INH,[5],0.7 ×10⁴ L/mol/s
same,INH,[6],14 ×10⁴ L/mol/s
same,TIME,[7],12.3 h
same,INH,[8],1.3 ×10⁴ L/mol/s
same,INH,[1],4.4 ×10⁵ L/mol/s
same,IC50,[9],106 µg/mL
same,inhibition,[10],55.1%
same,TIME,[2],0.397 h
same,TIME,[3],0.967 h
same,TIME,[11],2.7 ×10³ s
COc1cc(/C=C/c2cc(O)c(O)c(C(C)(C)C)c2)cc(OC)c1,INH,[6],240 ×10⁴ L/mol/s
CCOc1ccc(/C=C\c2cc(OC)cc(OC)c2)cc1,Ki,[12],0.012 µM
COc1cc(/C=C\c2ccc(O)c(OC)c2)cc(OC)c1,INH,[6],5.7 ×10⁴ L/mol/s
Oc1ccc(/C=C\c2cc(O)cc(O)c2)cc1 [CIS-RESVERATROL],EC50,Liver microsome,241 µM
same,INH,[6],7.4 ×10⁴ L/mol/s
Oc1cc(/C=C/c2cc(O)c(O)c(O)c2)cc(O)c1O,IC50,[9],0.9 µg/mL
Oc1cc(O)cc(/C=C/c2ccccc2)c1,TIME,[4],1.5 ×10³ s
same,INH,[5],0.5 ×10⁴ L/mol/s
same,TIME,[7],2.3 h
same,INH,[8],1.7 ×10⁴ L/mol/s
same,INH,[1],3.3 ×10⁵ L/mol/s
same,inhibition,[10],29.8%
same,TIME,[2],0.362 h
same,TIME,[3],0.717 h
same,TIME,[11],2.4 ×10³ s
Oc1ccc(/C=C/c2ccc(O)c(O)c2)cc1,TIME,[4],7.2 ×10³ s
same,INH,[1],4.2 ×10⁵ L/mol/s
same,TIME,[2],0.62 h
same,TIME,[3],1.75 h
same,TIME,[11],5.1 ×10³ s
Oc1ccc(/C=C/c2ccc(O)c(O)c2)cc1O,INH,[1],3.7 ×10⁵ L/mol/s
same,TIME,[2],0.85 h
same,TIME,[3],1.78 h
O=C(/C=C/c1cc(O)c(O)c(O)c1)Oc1cc(O)cc(/C=C/c2ccc(O)cc2)c1,IC50,[9],10 µg/mL
COc1ccc(/C=C/c2cc(O)cc(O)c2)cc1 [RESVERATROL 4'-METHYL ETHER],EC50,Liver microsome,661 µM
same,EC50,[13],48.6 µM
Oc1cc(/C=C/c2ccccc2)cc(O)c1O,TIME,[4],2.4 ×10³ s
same,INH,[5],1.3 ×10⁴ L/mol/s
same,INH,[8],3.1 ×10⁴ L/mol/s
same,TIME,[11],2.9 ×10³ s
COc1cc(/C=C/c2ccc(O)c(OC)c2)ccc1O,INH,[1],4.1 ×10⁵ L/mol/s
same,TIME,[2],0.85 h
same,TIME,[3],1.47 h
Oc1cc(O)cc(/C=C/c2ccc(O)c(O)c2)c1,TIME,[7],60.3 h
same,inhibition,[10],67.1%
Oc1ccc(/C=C/c2cc(O)c(O)c(O)c2)cc1,TIME,[7],43 h
same,inhibition,[10],92.9%
CCCCOc1ccc(/C=C\c2cc(OC)cc(OC)c2)cc1,Ki,[12],0.012 µM
COc1cc(/C=C/c2ccc(O)c(O)c2)cc(OC)c1,INH,[6],110 ×10⁴ L/mol/s
Oc1ccc(/C=C/c2cc(O)c(O)c(O)c2)cc1O,IC50,[9],3 µg/mL
COc1cc(/C=C\c2ccc(O)cc2)cc(OC)c1,INH,[6],6.3 ×10⁴ L/mol/s
Clc1ccc(/C=C\c2cc(Cl)cc(Cl)c2)cc1,Ki,[12],0.012 µM
COc1cc(/C=C/c2ccc(O)cc2)cc(OC)c1 [PTEROSTILBENE],EC50,Liver microsome,355 µM
same,INH,[6],13 ×10⁴ L/mol/s
same,EC50,[13],30.1 µM
COc1cc(/C=C/c2ccc(O)c(OC)c2)cc(OC)c1,INH,[6],10 ×10⁴ L/mol/s
COc1cc(/C=C\c2cc(C(C)(C)C)c(O)c(C(C)(C)C)c2)cc(OC)c1,INH,[6],2.3 ×10⁴ L/mol/s
O=C(/C=C/c1ccc(O)c(O)c1)Oc1cc(O)cc(/C=C/c2ccc(O)cc2)c1,IC50,[9],9.2 µg/mL
Oc1cc(O)cc(/C=C/c2cc(O)cc(O)c2)c1,TIME,[7],3.7 h
same,inhibition,[10],46.5%
Oc1ccc(/C=C/c2ccc(O)cc2)cc1,TIME,[4],3.2 ×10³ s
same,INH,[5],0.8 ×10⁴ L/mol/s
same,INH,[8],1.4 ×10⁴ L/mol/s
same,INH,[1],8.2 ×10⁵ L/mol/s
same,TIME,[2],0.308 h
same,TIME,[3],1.28 h
same,TIME,[11],2.6 ×10³ s
Oc1cc(O)cc(/C=C/c2cc(O)c(O)c(O)c2)c1,TIME,[7],48.1 h
same,inhibition,[10],92.9%
Oc1cc(/C=C/c2cc(O)c(O)c(Br)c2)cc(O)c1O,IC50,[9],8.1 µg/mL
COc1cc(/C=C/c2cc(C(C)(C)C)c(O)c(C(C)(C)C)c2)cc(OC)c1,INH,[6],6.8 ×10⁴ L/mol/s
Oc1ccc(/C=C/c2ccccc2)cc1,TIME,[4],2.1 ×10³ s
same,INH,[5],1 ×10⁴ L/mol/s
same,INH,[8],1.2 ×10⁴ L/mol/s
same,TIME,[11],1.7 ×10³ s
"COc1ccc(/C=C\c2cc(OC)cc(OC)c2)cc1 [8Z-3,4',5-TRIMETHOXYSTILBENE]",Ki,[12],0.012 µM
Oc1ccc(/C=C/c2ccccc2)cc1O,TIME,[4],4.9 ×10³ s
same,INH,[5],0.9 ×10⁴ L/mol/s
same,INH,[8],2.9 ×10⁴ L/mol/s
same,INH,[1],4.9 ×10⁵ L/mol/s
same,TIME,[2],0.65 h
same,TIME,[3],1.77 h
same,TIME,[11],4.1 ×10³ s
O=C(Oc1cc(O)cc(/C=C/c2ccc(O)cc2)c1)c1cc(O)c(O)c(O)c1,IC50,[9],16 µg/mL
Oc1ccc(/C=C/c2ccc(O)cc2O)cc1,INH,[1],3.3 ×10⁵ L/mol/s
same,TIME,[2],0.458 h
same,TIME,[3],0.717 h
COc1ccc(/C=C\c2cc(Cl)cc(Cl)c2)cc1,Ki,[12],0.012 µM
COc1cc(/C=C\c2ccc(O)c(O)c2)cc(OC)c1,INH,[6],76 ×10⁴ L/mol/s
